Here are results for 23 compounds from PubChem BioAssay AID206 (DTP/NCI, 2004).

This experiment deals with nude mice, HT29 intrarenal xenograft, tumor weight T/C. In words: NCI In Vivo Anticancer Drug Screen. Data for tumor model HT29;CX-1 Human Adenocarcinoma (MER+) (intrarenal inoculation) in NU/NU Swiss (nude) mice. The note with it: endpoint: mean tumor weight change, higher = larger tumour. The gist of the method: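 T/C = treated-group value ÷ vehicle-group value, using tumor size or survival.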

Setting [1] is: dose: 50.0 mg/kg/injection, schedule: Q04DX004 (sc), vehicle: saline with Tween-80.
The mark [2] stands for this setting: dose: 100.0 mg/kg/injection, schedule: Q04DX004 (sc), vehicle: saline with Tween-80.
Where [3] appears, read: dose: 200.0 mg/kg/injection, schedule: Q04DX004 (sc), vehicle: saline with Tween-80.
Setting [4] is: dose: 400.0 mg/kg/injection, schedule: Q04DX004 (sc), vehicle: saline with Tween-80.
Setting [5] is: dose: 50.0 mg/kg/injection, schedule: Q04DX004 (sc), vehicle: Klucel (hydroxypropylcellulose) (HPC).

SMILES strings stand for the structures. “And” between values parts separate entries of the source, which are not always exact repeats. Identical values can stand only once. Results filed as inconclusive are left out.

Regarding `COC(C(=O)C(O)C(C)O)C1Cc2cc3cc(OC4CC(OC(C)=O)C(OC5CC(O)C(OC)C(C)O5)C(C)O4)cc(O)c3c(O)c2C(=O)C1OC1CC(OC2CC(OC3CC(C)(O)C(OC(=O)C(C)C)C(C)O3)C(O)C(C)O2)C(O)C(C)O1` (centres undefined), the T/C by setting is: (dose: 0.5 mg/kg/injection, schedule: Q01DX010 (sc), vehicle: saline with Tween-80) 73 % of control; (dose: 1.0 mg/kg/injection, schedule: Q01DX010 (sc), vehicle: saline with Tween-80) 97 % of control; (dose: 1.0 mg/kg/injection, schedule: Q04DX004 (sc), vehicle: saline with Tween-80) 95 % of control; (dose: 2.0 mg/kg/injection, schedule: Q01DX010 (sc), vehicle: saline with Tween-80) 105 % of control; (dose: 2.0 mg/kg/injection, schedule: Q04DX004 (sc), vehicle: saline with Tween-80) 47 % of control; (dose: 4.0 mg/kg/injection, schedule: Q04DX004 (sc), vehicle: saline with Tween-80) 50 % of control.
As for `CN=C(N)N/N=C(\C)c1ccc2c(c1)Cc1cc(/C(C)=N/NC(N)=NC)ccc1-2`, the T/C (dose: 25.0 mg/kg/injection, schedule: Q04DX004 (sc), vehicle: saline with Tween-80) is 102 % of control; the T/C under setting [1] is 53 % of control; the T/C under setting [2] was 105 % of control; the T/C under setting [3] is 50 % of control.
On to `CCS/C(SC)=C(/c1ccccc1)[P+](c1ccccc1)(c1ccccc1)c1ccccc1`, for which the T/C (dose: 18.75 mg/kg/injection, schedule: Q04DX004 (sc), vehicle: Klucel (hydroxypropylcellulose) (HPC)) was 93 % of control.
In the case of `CN(Cc1cnc2nc(N)nc(N)c2n1)c1c(Cl)cc(C(=O)NC(CCC(=O)O)C(=O)O)cc1Cl` (centres undefined), the T/C was 166 % of control (dose: 12.5 mg/kg/injection, schedule: Q01DX010 (sc), vehicle: Klucel (hydroxypropylcellulose) (HPC)) and 86 % of control (dose: 25.0 mg/kg/injection, schedule: Q01DX010 (sc), vehicle: Klucel (hydroxypropylcellulose) (HPC)).
Regarding `ClC1=C(Cl)C(Cl)=C(Cl)C1=Cc1ccccc1`, the T/C under setting [1] was 104 % of control.
As for `CN(Cc1cnc2nc(N)nc(N)c2n1)c1ccc(C(=O)N[C@@H](CCC(=O)O)C(=O)O)cc1`, the T/C is 116 % of control (dose: 0.5 mg/kg/injection, schedule: Q01DX010 (sc), vehicle: sodium bicarbonate) and 41 % of control (dose: 1.0 mg/kg/injection, schedule: Q01DX010 (sc), vehicle: sodium bicarbonate).
In the case of `CCOC(=O)NC1=C(N2CC2)C(=O)C(NC(=O)OCC)=C(N2CC2)C1=O`, for the setting “dose: 3.13 mg/kg/injection, schedule: Q04DX004 (sc), vehicle: suspension in saline”, the T/C is 55 % of control.
In the case of `COc1ccc(S(=O)(=O)N=N/C=C2\C=CC=CN2O)cc1OC`, the T/C is 61 % of control (dose: 18.75 mg/kg/injection, schedule: Q04DX004 (sc), vehicle: saline with Tween-80); 54 % of control (dose: 37.5 mg/kg/injection, schedule: Q04DX004 (sc), vehicle: saline with Tween-80); 55 % of control (dose: 300.0 mg/kg/injection, schedule: Q04DX004 (sc), vehicle: saline with Tween-80).
With `O=C(Nc1cccc2c(OC(=O)C(Cl)Cl)c(N=Nc3ccc(S(=O)(=O)Nc4nccs4)cc3)cc(N=Nc3ccc(S(=O)(=O)Nc4nccs4)cc3)c12)C(Cl)Cl` (tested in a mixture with another compound), the T/C reads like this: under setting [1], 78 % of control; under setting [2], 94 % of control; under setting [3], 58 % of control; under setting [4], 56 % of control.
For the compound `O=Cc1ccc(C(Cl)(Cl)Cl)cc1`, the T/C (dose: 100.0 mg/kg/injection, schedule: Q01DX010 (sc), vehicle: saline with Tween-80) was 121 % of control and the T/C (dose: 400.0 mg/kg/injection, schedule: Q01DX010 (sc), vehicle: saline with Tween-80) is 107 % of control.
On to `CC(=O)O[C@@H]1CO[C@H]2O[C@H]3[C@@H](C(C=O)=C[C@H](O)[C@@H]4C5=C(C(C)C)CC[C@]5(C)CC[C@@]34C)[C@@]2(O)C1=O`, for which the T/C (dose: 12.5 mg/kg/injection, schedule: Q04DX004 (sc), vehicle: Klucel (hydroxypropylcellulose) (HPC)) was 110 % of control; the T/C (dose: 25.0 mg/kg/injection, schedule: Q04DX004 (sc), vehicle: Klucel (hydroxypropylcellulose) (HPC)) was 83 % of control; the T/C under setting [5] is 76 % of control; the T/C (dose: 100.0 mg/kg/injection, schedule: Q04DX004 (sc), vehicle: Klucel (hydroxypropylcellulose) (HPC)) is 58 % of control.
With `C[C@H](N)C(=O)N[C@@H]1[C@H]2C(=C(O)C[C@@H](O)[C@@H]2O)C(=O)O[C@]1(C)C(Cl)Cl`, the T/C (dose: 1.5 mg/kg/injection, schedule: Q04DX004 (sc), vehicle: Klucel (hydroxypropylcellulose) (HPC)) was 33 % of control.
As for `CSc1ncnc2c1ncn2C1OC(CO)C(O)C1O` (centres undefined), the T/C is, setting by setting: (dose: 37.5 mg/kg/injection, schedule: Q04DX004 (sc), vehicle: saline + alcohol) 74 % of control and 77 % of control and 80 % of control; (dose: 125.0 mg/kg/injection, schedule: Q04DX004 (sc), vehicle: saline + alcohol) 154 % of control; (dose: 175.0 mg/kg/injection, schedule: Q04DX004 (sc), vehicle: saline + alcohol) 65 % of control.
Consider `NC(CCl)=NCC12CC3CC(CC(C3)C1)C2`, for which the T/C was 97 % of control (dose: 37.5 mg/kg/injection, schedule: Q04DX004 (sc), vehicle: Klucel (hydroxypropylcellulose) (HPC)) and 114 % of control (dose: 75.0 mg/kg/injection, schedule: Q04DX004 (sc), vehicle: Klucel (hydroxypropylcellulose) (HPC)).
On to `NC(N)=NOCC[C@@H](N)C(=O)O`, for which the T/C (dose: 150.0 mg/kg/injection, schedule: Q04DX004 (sc), vehicle: saline) is 108 % of control; the T/C (dose: 300.0 mg/kg/injection, schedule: Q04DX004 (sc), vehicle: saline) was 75 % of control; the T/C (dose: 600.0 mg/kg/injection, schedule: Q04DX004 (sc), vehicle: saline) is 76 % of control; the T/C (dose: 1200.0 mg/kg/injection, schedule: Q04DX004 (sc), vehicle: saline) was 62 % of control.
As to `CC(Cc1ccc(O)c(O)c1)C(C)Cc1ccc(O)c(O)c1` (centres undefined), the T/C runs as follows: (dose: 600.0 mg/kg/injection, schedule: Q04DX004 (sc), vehicle: saline + alcohol) 68 % of control; (dose: 900.0 mg/kg/injection, schedule: Q04DX004 (sc), vehicle: saline + alcohol) 102 % of control; (dose: 1800.0 mg/kg/injection, schedule: Q04DX004 (sc), vehicle: saline + alcohol) 97 % of control.
On to `CCOC(=O)C(N)CSC(=O)NC` (centres undefined), for which the T/C reads like this: (dose: 100.0 mg/kg/injection, schedule: Q04DX004 (sc), vehicle: saline) 92 % of control; (dose: 200.0 mg/kg/injection, schedule: Q04DX004 (sc), vehicle: saline) 96 % of control; (dose: 400.0 mg/kg/injection, schedule: Q04DX004 (sc), vehicle: saline) 103 % of control; (dose: 800.0 mg/kg/injection, schedule: Q04DX004 (sc), vehicle: saline) 62 % of control.
Take `COc1ccc2c(c1)CCC(c1ccccc1)=C2c1ccc(OCCN2CCCC2)cc1`: the T/C reads like this: under setting [5], 87 % of control; (dose: 200.0 mg/kg/injection, schedule: Q04DX004 (sc), vehicle: Klucel (hydroxypropylcellulose) (HPC)) 108 % of control; (dose: 400.0 mg/kg/injection, schedule: Q04DX004 (sc), vehicle: Klucel (hydroxypropylcellulose) (HPC)) 52 % of control.
Turning to `C(CC1CO1)C1CO1` (centres undefined), the T/C reads like this: (dose: 50.0 mg/kg/injection, schedule: Q01DX010 (sc), vehicle: saline) 35 % of control; (dose: 100.0 mg/kg/injection, schedule: Q01DX010 (sc), vehicle: saline) 37 % of control.
With `O=C1NC2(CCCCC2)C(=O)N1CCN(CCCl)CCCl`, the T/C reads like this: (dose: 6.0 mg/kg/injection, schedule: Q01DX010 (sc), vehicle: saline) 64 % of control; (dose: 24.0 mg/kg/injection, schedule: Q01DX010 (sc), vehicle: saline) 21 % of control and 23 % of control; (dose: 48.0 mg/kg/injection, schedule: Q01DX010 (sc), vehicle: saline) 23 % of control.
On to `C=C[Si]12OCCN(CCO1)CCO2`, for which the T/C runs as follows: (dose: 300.0 mg/kg/injection, schedule: Q04DX004 (sc), vehicle: Klucel (hydroxypropylcellulose) (HPC)) 92 % of control; (dose: 600.0 mg/kg/injection, schedule: Q04DX004 (sc), vehicle: Klucel (hydroxypropylcellulose) (HPC)) 93 % of control; (dose: 1200.0 mg/kg/injection, schedule: Q04DX004 (sc), vehicle: Klucel (hydroxypropylcellulose) (HPC)) 110 % of control; (dose: 2400.0 mg/kg/injection, schedule: Q04DX004 (sc), vehicle: Klucel (hydroxypropylcellulose) (HPC)) 71 % of control.
As to `CC(C)=CCNc1ncnc2c1ncn2C1OC(CO)C(O)C1O` (centres undefined), the T/C (dose: 400.0 mg/kg/injection, schedule: Q04DX004 (sc), vehicle: suspension in saline) was 62 % of control.
In the case of `CCN(CC)CCC(=O)c1ccccc1`, the T/C runs as follows: under setting [1], 65 % of control; under setting [2], 60 % of control; under setting [3], 50 % of control; under setting [4], 77 % of control.
